The values that follow come from patent publication US6706276B2, “Compositions and methods for trapping and inactivating pathogenic microbes and spermatozoa” (Rush-Presbyterian-St. Luke's Medical Center, priority 2000, dated 2004).

Marks after values point to notes of the source that are not given here.

The subject of one data set is HSV-2 strain 186. Kind of data set: Genital herpes infection in the mouse model. The data set is classed as in vivo, mice. Conditions: Table IV, 20 sec before virus inoculation; for Protected Against Disease, Number / Protected Against Infection, Number: 15 inoculated.
For data set [1], the system named is vaginal/cervical epithelial and other cells. The settings on record: in vitro; cited from earlier work.

In the case of nonoxynol-9 [N-9], in the data set on HSV-2 strain 186 (N-9 5% in PBS), the “Protected Against Disease, %” value was 40^d %; the “Protected Against Infection, %” value turned out to be 13%; the “Protected Against Disease, Number” value came to 6; the “Protected Against Infection, Number” value is listed as 2. Moreover, in the data set on HSV-2 strain 186 (N-9 50% in PBS), the “Protected Against Disease, %” value is recorded as 100^c %; the “Protected Against Infection, %” value is listed as 93^c %; the “Protected Against Disease, Number” value is listed as 15. Moreover, in the data set with HSV-2 strain 186 (N-9 100% in PBS), the “Protected Against Disease, %” value is given as 100^c %; the “Protected Against Infection, %” value is recorded as 93^c %; the “Protected Against Disease, Number” value is on record as 15; the “Protected Against Infection, Number” value is listed as 14. Besides, in the data set with HSV-2 strain 186 (N-9 in PBS), the “Protected Against Infection, Number” value amounted to 14. Moreover, the “lowest concentration injuring cells” value in data set [1] is “about 0.0005%”.
